≈ marks a conversion by molar mass, not a printed value. Where “and” joins values, the source holds several entries; their conditions need not be identical. Equal values may be shown once. Read-outs that look alike come from different tables or passages of the source.
How the values were obtained:
L. major promastigotes = assay: In vitro growth of L. major promastigotes, 3H-thymidine uptake (Example 4); type: cell-based, Leishmania major; conditions: Leishmania major; for IC50: read-out: concentration for 50% inhibition; for inhibition at 1 µg/mL: 1 μg/ml; for inhibition at 2 µg/mL: 2 μg/ml; for inhibition at 5 µg/mL: 5 μg/ml; for inhibition at 10 µg/mL: 10 μg/ml; for inhibition at 20 µg/mL: 20 μg/ml
[1] = system: L. major in human PBM-derived macrophages; assay: L. major in human PBM-derived macrophages, microscopic counting (Example 7); type: cell-based, Leishmania major
[2] = system: human lymphocytes, neutrophils, and monocytes; assay: Trypan blue dye exclusion method; type: cell-based; conditions: 20 μg/ml
Method: Trypan blue dye exclusion method. This is a standard method used to determine cell viability. The assay is performed by incubating a given cell suspension with trypan blue for various periods of time after which the cells are examined under microscope. Dead cells will take up the dye and therefore show a blue colour. Percent viability is determined by counting at least a total of 200 cells.

[3] = system: chloroquine resistant P. falciparum DD2 strain; assay: In vitro growth of P. falciparum DD2, 3H-hypoxanthine uptake (Example 15); type: cell-based, Plasmodium falciparum; conditions: for Growth in % of control (mean ± SEM): title: percentage inhibition of 3H-hypoxanthine uptake
[4] = system: P. yoelii (strain not characterized); assay: P. yoelii (strain not characterized) infection in mice, parasitemia, drug i.p. (Example 16); type: in vivo, BALB/c mice; conditions: 5 mg per kg twice daily for 8 days
[5] = read-out: percentage inhibition of 3H-thymidine uptake (mean ± SEM), 3-day culture
[6] = read-out: percentage inhibition of 3H-thymidine uptake (mean ± SEM), 6-day culture
[7] = 3 days after infection, 0.5 μg/ml
[8] = 3 days after infection, 1 μg/ml
[9] = 6 days after infection, 0.5 μg/ml
[10] = 6 days after infection, 1 μg/ml

`C=CC(C)(C)c1cc(/C=C/C(=O)c2ccc(O)cc2)c(OC)cc1O` [Licochalcone A, licochalcone A] was tested, and the IC50 (L. major promastigotes; log phase promastigotes) was 2 to 5 µg/mL (≈ 5.91 to 14.8 µM), the inhibition at 1 µg/mL (L. major promastigotes; [5]) was 3.6 ± 11.5% and the inhibition at 2 µg/mL (L. major promastigotes; [5]) was 14.8 ± 21.5%. It also gave an inhibition at 5 µg/mL (L. major promastigotes; [5]) of 63.9 ± 13%, an inhibition at 10 µg/mL (L. major promastigotes; [5]) of 91.9 ± 8.4% and an inhibition at 20 µg/mL (L. major promastigotes; [5]) of 96 ± 7.5%. It also gave an inhibition at 1 µg/mL (L. major promastigotes; [6]) of 15.8 ± 16.5%, an inhibition at 2 µg/mL (L. major promastigotes; [6]) of 42.6 ± 19.7% and an inhibition at 5 µg/mL (L. major promastigotes; [6]) of 80.7 ± 6.4%. The inhibition at 10 µg/mL (L. major promastigotes; [6]) was 96.4 ± 1.2%, the inhibition at 20 µg/mL (L. major promastigotes; [6]) was 99.4 ± 1.1% and the IC50 (L. major promastigotes; stationary phase promastigotes) was ~2 µg/mL (≈ 5.91 µM). For the same molecule, the “% of amast.” value [1, 7] was 91.6%, the “% of infec. cells” value [1, 7] was 14.0% and the amast. per cell [1, 7] was 1.7. The proma. per cell [1, 7] was 0.1, the total amast. [1, 7] was 23.3 ×10^6 and the total proma. [1, 7] was 2.0 ×10^6. For the same molecule, the “% of amast.” value [1, 8] was 88.2%, the “% of infec. cells” value [1, 8] was 10.7% and the amast. per cell [1, 8] was 1.7. For the same molecule, the proma. per cell [1, 8] was 0.2, the total amast. [1, 8] was 17.7 ×10^6 and the total proma. [1, 8] was 2.0 ×10^6. For the same molecule, the “% of infec. cells” value ([1]; 3 days after infection, 5 μg/ml) was 0%, the “% of infec. cells” value ([1]; 3 days after infection, 10 μg/ml) was 0% and the “% of amast.” value [1, 9] was 100%. For the same molecule, the “% of infec. cells” value [1, 9] was 8.0%, the amast. per cell [1, 9] was 1.7 and the proma. per cell [1, 9] was 0. The total amast. [1, 9] was 14 ×10^6, the total proma. [1, 9] was 0 ×10^6 and the “% of amast.” value [1, 10] was 100%. For the same molecule, the “% of infec. cells” value [1, 10] was 7.3%, the amast. per cell [1, 10] was 2.2 and the proma. per cell [1, 10] was 0. For the same molecule, the total amast. [1, 10] was 16 ×10^6, the total proma. [1, 10] was 0 ×10^6 and the “% of infec. cells” value ([1]; 6 days after infection, 5 μg/ml) was 0%. For the same molecule, the “% of infec. cells” value ([1]; 6 days after infection, 10 μg/ml) was 0%, the “toxic effect, trypan blue dye exclusion” value [2] was “no toxic effect” and the IC50 ([3]; Plasmodium falciparum, DD2, read-out: concentration in which parasite growth was retarded by 50%) was 0.5 to 1 µg/mL (≈ 1.48 to 2.96 µM). For the same molecule, the “Growth in % of control (mean ± SEM)” value ([3]; 0.1 μg/ml) was 5.0 ± 2.0%, the “Growth in % of control (mean ± SEM)” value ([3]; 0.5 μg/ml) was 41.0 ± 4.0% and the “Growth in % of control (mean ± SEM)” value ([3]; 1 μg/ml) was 66.0 ± 3.0%. For the same molecule, the “Growth in % of control (mean ± SEM)” value ([3]; 5 μg/ml) was 98.0 ± 1.0%, the “Growth in % of control (mean ± SEM)” value ([3]; 10 μg/ml) was 99.0 ± 0.0001% and the “Parasitemia, mean of 3 mice” value ([4]; D + 1) was 0.03%. The “Parasitemia, single mice” value ([4]; D + 1) was 0.05% and 0.03% and 0.02%, the “Parasitemia, mean of 3 mice” value ([4]; D + 2) was 0.2% and the “Parasitemia, single mice” value ([4]; D + 2) was 0.5% and 0.05% and 0.01%. For the same molecule, the “Parasitemia, mean of 3 mice” value ([4]; D + 3) was 1.0% and the “Parasitemia, single mice” value ([4]; D + 3) was 2.0% and 0.5%.
